Laboratory results taken from patent US9616037B2, “Aryl-phenyl-sulfonamido-cycloalkyl compounds and their use” (PIMCO 2664 Limited, priority 2008, dated 2017).
≈ marks a conversion by molar mass, not a printed value.

How the values were obtained:
[1] = tested on: J774 macrophages; test: Alamar Blue macrophage J774 viability assay; assay type: cell-based; settings: Mus musculus; J774 cells, 72 hours with compound, Alamar Blue readout; read-out: IC50
Description: (§1) Initial screening of candidate compounds was performed using in vitro assays to determine potency, metabolic stability and solubility in biologically relevant fluids. Potency was assessed using a viability assay based on the survival of the J774 macrophage cell line. Macrophages are closely related to osteoclasts and have been used previously as a model system for osteoclast survival (see, e.g., Luckman et al., 1998). Like osteoclasts, J774 macrophages are dependent on continued NFκB activation for survival, thereby providing a valuable screen for compounds with anti-inflammatory activity. Metabolic stability was measured by determining the rate of disappearance of compound in the presence of human liver microsomal preparations, as quantified by LC-MS/MS. Solubility was measured by equilibration of the compound in fasted state simulated intestinal fluid (FaSSIF) and quantified by HPLC.
In vitro potency as anti-inflammatory agents was determined for a number of APSAC compounds by incubation with J774 macrophages and subsequent determination of cell viability.
J774 cells were plated at 10^4 cells per well in 100 μL αMEM (α Modified Eagle Medium) in 96-well plates and grown overnight. The next day, test compounds were added to the cultures, and cultures were continued for another 72 hours. At the end of the culture period, cell survival was determined using an Alamar Blue assay as previously described (see, e.g., Nociari et al., 1998).
Alamar Blue is an oxidation-reduction sensitive indicator. The dye itself is in the oxidised state, which is blue and non-fluorescent. The dye can accept electrons from reducing species, such as NADPH and FADH, to form a reduced dye species, which is red and fluorescent. Thus the transformation from oxidised form to reduced form can be measured by fluorimetric or colourimetric means. For fluorescence measurements, 530-560 nm excitation and 590 nm emission wavelengths are typically used. For colourimetric measurements, absorbance at 570 nm (reduced form) and 600 nm (oxidised form) is typically measured. A simple calculation is performed to determine the relative quantities of the two species.
A high ratio of the reducing species, NADPH and FADH, to the corresponding oxidised species, NADP and FAD, is an indicator that cells are proliferating and viable. A low ratio indicates cells that are quiescent or non-viable.
Briefly, Alamar Blue (Biosource International) was added undiluted to the each well (1:10 v/v, 10 μL). The plate was incubated at 37° C. for 3-4 hours and the fluorescence was measured at 590 nm, with a 25 nm bandwidth. A high reading indicated cells with normal viability, and a low reading indicated cells that have been damaged and are no longer proliferating normally. The controls gave a high fluorescence reading, indicating a high number of live, healthy cells. A potent test compound gave a low fluorescence reading. The average results for each test compound (n=5) were expressed as a percent (%) of the average control value.
Addition of Compounds. All of the compounds studied were made up as 100 mM solutions in DMSO. These stock solutions were then diluted 1000-10000× in culture medium (αMEM). From these 100 μM or 10 μM solutions, convenient quantities (3-33 μL) were added directly to the wells so as to give the desired final compound concentration.

[2] = Thermodynamic aqueous solubility in fasted state simulated intestinal fluid (FaSSIF); assay type: physicochemical; settings: pH 6.5, thermodynamic from solid, equilibrated at 25° C. for 24 hours, HPLC
Description: as §1, with “Macrophages are closely related to osteoclasts and have been used previously as a model system for osteoclast survival (see, e.g., Luckman et al., 1998).” left out
Thermodynamic aqueous solubility was measured by equilibration of a number of APSAC compounds, in the solid state, with fasted state simulated intestinal fluid (FaSSIF) and quantified by HPLC. Measurement of solubility in FaSSIF provides a valuable model for the prediction of drug dissolution following oral administration.
The pH was adjusted to 6.5 using 1 M NaOH solution.
0.6 mL of a solution containing 100 mg/mL lecithin in methylene chloride was added. The methylene chloride was eliminated under vacuum at about 40° C. The vacuum was drawn for 15 minutes at 250 mbar, followed by 15 minutes at 100 mbar. […] After cooling to room temperature, the solution was then adjusted to 100 mL with blank FaSSIF.
The suspension was equilibrated at 25° C. for 24 hours, and then the pH was measured. The suspension was then filtered through a glass fibre C filter into a 96-well plate. The filtrate was then diluted by a factor of 100. Quantification was made by HPLC with reference to a standard solution of compound at approximately 0.1 mg/mL in DMSO. Different volumes of the standard, diluted and undiluted sample solutions were injected. […] Analysis was performed on an Agilent HP1100 series system equipped with a diode array detector and using ChemStation software vB.02.01-SR1.

[3] = tested on: caspase 3; test: Caspase induction study (Nucview488 fluorogenic substrate) in the presence of TNFα; assay type: cell-based; settings: human monocytes, 10 μM test compound, 10 ng/mL TNFα, Nucview488 stain
Description: The ability to activate caspase 3 was studied using a fluorogenic enzyme substrate assay.
Briefly, human primary monocytes were isolated from whole blood using Ficoll gradients. The resulting cells were plated into microwell plates for 24 hours after which non-adherent cells were removed by washing. Cells were differentiated in the presence of 100 ng/mL MCSF. Cells were pre-treated with 10 μM test compound for 1 hour prior to stimulation with 10 ng/mL TNFα. Caspase 3 activation as an indicator of apoptosis was detected using the Nucview488 stain, which was added one hour prior to visualisation. The Nucview488 stain indicates the activation of caspase 3 (CPP32, apopain, YAMA), a cysteine peptidase which plays a key role in the induction of apoptosis in individual whole mammalian cells. Essentially, Nucview488 consists of a fluorogenic DNA dye and a DEVD substrate moiety specific for caspase 3. In itself, Nucview488 is nonfluorescent. However, upon entering the cell cytoplasm, Nucview488 is cleaved by caspase 3 to form a high-affinity DNA dye. The released DNA dye migrates to the cell nucleus to stain the nucleus bright green. This fluorescent staining produced in response to caspase 3 activity is monitored using fluorescent light microscopy.

`O=S(=O)(N[C@H]1CC[C@@H](CO)C1)c1ccc(-c2ccc(F)cc2F)cc1` [ABD773, 2′,4′-Difluoro-N-((1 S,3R)-3-(hydroxymethyl)cyclopentyl)biphenyl-4-sulfonamide] showed an IC50 [1] of 130 nM and a solubility at 24 h [2] of 890 µg/mL (≈ 2420 µM).
With `O=S(=O)(N[C@H]1CC[C@@H](CO)CC1)c1ccc(-c2ccc(F)cc2F)cc1` [ABD781, 2′,4′-Difluoro-N-(cis-4-(hydroxymethyl)cyclohexyl)biphenyl-4-sulfonamide] the “caspase 3 activation (fluorescence detected by light microscopy)” value [3] was “significant activation of caspase 3”, the IC50 [1] was 300 nM and the solubility at 24 h [2] was 590 µg/mL (≈ 1550 µM).
